The values below come from PMC5271370, “A High-Content Assay Enables the Automated Screening and Identification of Small Molecules with Specific ALDH1A1-Inhibitory Activity” (PLoS ONE, 2017).

Molecules are shown by their SMILES. Like-named read-outs stand apart in the source and are kept apart here.

Experiment [1] has as its system HT-29 cells. The experiment in a line: 1,536-well high-content imaging ALDEFLUOR assay, HT-29. The class given is cell-based, human. The protocol:
(§1) To miniaturize the assay into a 1536-well format amenable to qHTS, we chose MIA PaCa-2 and HT-29 because of their high levels of ALDH1A1(Fig 1A). Utilizing the 8-step protocol described by Ming et al. as a starting point, we developed a “semi-automated” protocol described in S1 Table. Briefly, we plated 1,000 cells in a volume of 5 μL/well into black-optical quality clear bottom 1,536-well plates, and allowed cells to attach overnight. Culture media was subsequently removed by inverting and centrifuging plates using a plate adaptor as previously described and replaced with 5 μL of a solution of either 500 or 100 nM BAAA substrate in ALDEFLUOR buffer. To identify cells based on nuclear staining, we also included 0.5 nM Hoechst 33342 in the above buffer. […] After incubating the plate for 30 minutes at 37°C, 5% CO2, 85% RH, the remaining substrate was removed by centrifugation as above and replaced with 3 μL of ALDEFLUOR buffer. Fluorescence was subsequently imaged using the IN Cell Analyzer 2200 high-content widefield fluorescence based imager and the resulting images were quantified using the IN Cell Investigator v1.6.2 analysis software (see Experimental Procedures for analysis details).
(§2) The ALDEFLUOR kit was purchased from […] Technologies (Vancouver, Canada; #01700). Cells (5 μL) were dispensed into black, optical quality (cyclic olefin copolymer) clear bottom, medium binding TC treated 1,536-well plates (Aurora Microplates, Whitefish MT) using a Multidrop Combi dispenser (ThermoFisher) and incubated overnight (37°C, 5% CO2, 85% RH). Media was subsequently removed by centrifuging plates upside down using a plate adaptor to collect media. A solution of BAAA substrate ([…] Technologies) and Hoechst 33342 (ThermoFisher, final concentrations of 500 nM and 0.5 nM, respectively) in ALDEFLUOR buffer ([…] Technologies #01700) was dispensed onto cells using a Multidrop Combi followed by immediate transfer (23 nL) of compound or control solutions using a Wako Pin-tool (final percentage of DMSO in the cell plates was 0.5%). Unless otherwise noted, all compounds were assayed as 16-point dilutions spanning a final concentration range of 1.4 nM to […]. […] Cells were incubated for 30 minutes or the indicated amount of time at 37°C, 5% CO2, 85% RH to allow the conversion of BAAA into BAA. Supernatant was subsequently removed by centrifugation as described above, then ALDEFLUOR buffer (3 μl) was dispensed by Multidrop Combi before imaging on an IN Cell 2200 (GE Healthcare).
(§3) The above assay was modified for an online robotic screening system. After cell plating and overnight incubation, 4 μL of media were removed using a 64-tip metal aspirator head on a Wako aspirator station, leaving 1 μL remaining in the well, followed by a 4 μL dispense of BAAA and Hoechst 33342 in ALDEFLUOR buffer, for a final concentration of 500 nM and 0.5 nM, respectively. Immediately following the dispense, 23 nL of compound or control solutions were transferred using a Wako Pin-tool. Cells were incubated for 30 minutes at 37°C, 5% CO2, 85% RH, followed by a 4 μL media removal using the Wako aspirator, and a subsequent 3 μL addition of ALDEFLUOR buffer. Plates were then immediately read on the IN Cell 2200 as described below.
(§4) For images captured on the IN Cell 2200 widefield automated microscope, a 10x 0.45 NA Plan Apo objective lens was used to capture the entire well of the 1,536-well plate using standard DAPI (390/18x, 432/48m) and FITC (475/28x, 525/48m) filter sets at 50 msec and 100 msec exposures, respectively. Images were subsequently analyzed using IN Cell Investigator v1.6.2 analysis software’s canned Multi-Target Analysis algorithm (GE Healthcare). Hoechst stained nuclei were identified using top hat segmentation with a minimum area of 75 μm^2 and sensitivity of 93. […]

Experiment [2] addresses T1, Human ALDH1A1 (Homo sapiens, UniProt P00352).
T1 construct: made in house
T1 sequence (P00352 1-501): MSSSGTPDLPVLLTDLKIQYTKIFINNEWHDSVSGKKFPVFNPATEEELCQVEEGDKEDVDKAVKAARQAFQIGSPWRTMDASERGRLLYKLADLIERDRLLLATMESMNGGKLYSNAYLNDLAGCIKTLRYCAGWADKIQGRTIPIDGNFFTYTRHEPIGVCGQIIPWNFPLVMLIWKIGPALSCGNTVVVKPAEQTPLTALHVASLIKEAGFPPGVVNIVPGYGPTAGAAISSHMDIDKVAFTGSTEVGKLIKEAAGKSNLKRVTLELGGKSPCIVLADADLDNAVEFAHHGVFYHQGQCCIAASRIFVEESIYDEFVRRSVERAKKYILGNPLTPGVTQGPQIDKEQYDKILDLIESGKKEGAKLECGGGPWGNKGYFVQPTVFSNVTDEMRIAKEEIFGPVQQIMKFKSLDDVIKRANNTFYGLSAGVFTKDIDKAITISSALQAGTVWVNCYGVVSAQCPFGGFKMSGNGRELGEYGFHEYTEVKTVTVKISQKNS
The experiment in a line: 1,536-well enzymatic assay (NADH fluorescence), ALDH1A1. It counts as biochemical. The settings on record: validation set; 20 nM enzyme, NAD+ and propionaldehyde; read-out: Biochemical IC50 ALDH1A1. The source says: To validate our optimized assay, we assembled a set of 20 previously reported ALDH inhibitors, with varying degrees of target specificity (Table 1 and S4 Fig). […] Briefly, the assay measures the dehydrogenase activity of recombinant human ALDH1A1, ALDH1A2, ALDH1A3, ALDH2 or ALDH3A1 using NAD(P)^+ and either propionaldehyde or benzaldehyde as substrates. An orthogonal resorufin-based assay format was also run with isolated ALDH1A1 to rule out potential false positives due to intrinsic compound fluorescence.
Human ALDH1A1 and ALDH3A1 were expressed and purified as described elsewhere. Human ALDH2 was purchased from Abcam (ab87415). Human ALDH1A2 and ALDH1A3 were purchased from MyBioSource (MBS1005929; San Diego, CA) and ThermoFisher (11636H07E50), respectively. The inhibitory activity of compounds against ALDHs was measured according to protocols described previously. Briefly, 3 μL of enzyme (final concentrations of 20 nM for ALDH1A1, 50 nM for ALDH1A2, 50 nM for ALDH1A3, 75 nM for ALDH2 and 5 nM for ALDH3A1) in assay buffer (100 mM HEPES pH 7.5 with 0.01% Tween 20) were dispensed into a 1,536-well solid-bottom black plate (Greiner Bio One, Monroe, NC). […] Samples were incubated (room temperature, protected from light) for 15 minutes followed by a 1 μL substrate addition of NAD^+ and Propionaldehyde (final concentrations of 1 mM and 80 μM, respectively) for ALDH1A1, 1A2, 1A3, and ALDH2 or NADP^+ and benzaldehyde (final concentrations of 1 mM and 200 μM, respectively) for ALDH3A1. Plates were centrifuged at 1,000 rpm for 15 seconds, then read in kinetic mode on a ViewLux High-throughput CCD imager (PerkinElmer, Waltham, MA) equipped with standard UV fluorescence optics (340 nm excitation, 450 nm emission) for 5 (ALDH1A1, ALDH1A2, ALDH2, ALDH3A1) or 30 (ALDH1A3) minutes. The change in fluorescence intensity over the 5- or 30-minute reaction period was normalized against no-inhibitor and no-enzyme controls and the resulting percent inhibition data were fitted to a 4-parameter Hill equation. Bay-11 7085 was used as intraplate control. To account for artifacts due to intrinsic compound fluorescence in the above spectrum, compounds were also tested in an orthogonal resorufin assay format with optics of excitation 525 nm/emission 598 nm as described before. The same parameters as the NADH assay were used for the resorufin assay, with the addition of (final) 133 μg/mL diaphorase and 37 μM resazurin to the assay solution. Same controls were used in both formats.

The subject of experiment [3] is MIA PaCa-2 cells. Description: 1,536-well high-content imaging ALDEFLUOR assay, MIA PaCa-2. It counts as cell-based, human. The settings on record: semi-automated; active = high quality concentration response curve and >50% efficacy; up to 45.8 μM. The protocol:
as §1, §2, §3, §4

In experiment [4] the test system is LN-229 cells. The experiment in a line: 1,536-well high-content imaging ALDEFLUOR assay, LN-229. It counts as cell-based, human. As to conditions: fully automated assay, Fig 5. The method, then:
We next sought to test if the fully automated high-content assay could be used to detect ALDH1A1-specific inhibitors.
as §2
The above assay was modified for an online robotic screening system. After cell plating and overnight incubation, 4 μL of media were removed using a 64-tip metal aspirator head on a Wako aspirator station, leaving 1 μL remaining in the well, followed by a 4 μL dispense of BAAA and Hoechst 33342 in ALDEFLUOR buffer, for a final concentration of 500 nM and 0.5 nM, respectively. Immediately following the dispense, 23 nL of compound or control solutions were transferred using a Wako Pin-tool. […] Plates were then immediately read on the IN Cell 2200 as described below.
For images captured on the IN Cell 2200 widefield automated microscope, a 10x 0.45 NA Plan Apo objective lens was used to capture the entire well of the 1,536-well plate using standard DAPI (390/18x, 432/48m) and FITC (475/28x, 525/48m) filter sets at 50 msec and 100 msec exposures, respectively. Images were subsequently analyzed using IN Cell Investigator v1.6.2 analysis software’s canned Multi-Target Analysis algorithm (GE Healthcare). […]
The same controls were also used for the calculation of the Z’ factor for each assay. The Z’ factor, a measure of assay quality control, was determined as previously described. […] All concentration–response curves were fitted as before and IC50 were calculated with the GraphPad Prism software.

Experiment [5] deals with ALDH1A1. As to conditions: reported ALDH target 1A1; read-out: Reported Biochemical IC50, ALDH1A1; cited from earlier work.

For the molecule `CCSC(=O)N1CCCCCC1` [Molinate], the “Activity in ALDEFLUOR assay, HT-29” value in experiment [1] (semi-automated, active = high quality concentration response curve and >50% efficacy, up to 45.8 μM) is “tested negative”. Also, the IC50 (commonly the concentration that inhibits the measured activity by half) in experiment [2] is 27 µM. In addition, the “Activity in ALDEFLUOR assay, MIA PaCa-2” value in experiment [3] was “tested negative”.
For the molecule `CC(C)CCn1c(CN2CCN(C(=O)C3CC3)CC2)nc2c1c(=O)n(C)c(=O)n2C` [NCT-501], in experiment [4], the “Inhibition of BAAA turnover in LN-229 (ALDH1A1-negative cells)” value was “inhibited BAAA turnover only in ALDH1A1-expressing cells”. In addition, the concentration for half-maximal inhibition (IC50) in experiment [1] (fully automated assay, n = 4, read-out: ALDEFLUOR IC50 HT-29 (Fig 5)) was 3.3 µM; in experiment [1] (validation set, semi-automated protocol, 16-point dilution, 1,000 cells/well, 500 nM BAAA, 30 min, read-out: Aldefluor IC50 HT-29) it was 4.33 µM; in experiment [5], […].
